Data from patent US9738656B2, “Pyranodipyridine compound” (Eisai R&D Management Co., Ltd., priority 2015, dated 2017).
Where two headings read alike, the source gives them in different places.

Legend:
AMPA receptor = assay: AMPA-induced intraneuronal calcium entry-suppressing action (primary culture of embryonic rat cerebral cortex neurons, Fura 2-AM); format: cell-based; settings: AMPA stimulation, intracellular calcium increase, read-out: IC50 for AMPA inhibition
Source text: The present inventors conducted the following tests, in order to confirm the effects of the compounds of the present invention. With regard to the AMPA receptor inhibitory action of the compounds, AMPA-induced intraneuronal calcium entry-suppressing action was examined using a primary culture system of embryonic rat cerebral cortex neurons. With regard to the anticonvulsant action of the compounds, 6 Hz (44 mA) stimulation-induced convulsions known as a treatment-resistant convulsion model were used. AMPA inhibitor-induced central nervous system depressant action such as loss of coordination was evaluated using a rotarod performance test.
AMPA-Induced Intraneuronal Calcium Entry-Suppressing Action
<Culture conditions> Whole fetuses were removed from the uteri of Wistar rats at embryonic day 18 (Charles River Japan) anesthetized with isoflurane. Whole brains were removed from the whole fetuses, and the cerebral cortex was separated in Leibovitz's L-15 medium or Hanks balanced salt solution containing 20% fetal bovine serum. The resulting material was treated with trypsin/DNase solution at 37° C. for 45 to 60 minutes. After the serum was added to stop the trypsin reaction, the resulting material was centrifuged at 1200 to 1500 rpm for 3 to 5 minutes. After the supernatant was removed, Neurobasal medium (containing 2% B-27 supplement and the like; hereinafter “Neurobasal medium”) was added, and the cells were uniformly dispersed by gently pipetting. The cell suspension was slightly stirred, and then filtered through a nylon mesh filter. Viable cells were counted using a hemocytometer, and diluted with Neurobasal medium to 8 to 10×10^5 cells/mL. The cells were seeded into 96 well plates at 100 μL per well and cultured in a CO2 incubator (5% CO2, 37° C.). The medium was replaced after 24 hours, and neurons cultured for 7 to 21 days were used.
On the day of the assay, the medium was removed and replaced with a calcium measurement solution containing 5 to 10 μmol/L of Fura 2-AM (140 mmol/L sodium chloride, 5 mmol/L potassium chloride, 2 mmol/L magnesium chloride, 3 mmol/L calcium chloride, 24 mmol/L D(+)-glucose, 10 mmol/L HEPES, 1 μmol/L MK-801, pH 7.4), and the cells were treated in a CO2 incubator (5% CO2, 37° C.) for 1 to 2 hours. The calcium measurement solution containing the Fura-2 AM solution was subsequently removed, and the neurons in each well were washed twice with the calcium measurement solution for each well, and then 50 μL of the calcium measurement solution was added to each well. Subsequently, 50 μL of a test compound or medium prepared at a concentration 3-fold higher than the final concentration was added, and the cells were pre-treated for about 15 minutes. The plates were subsequently placed on the Fluorescence Drug Screening System 6000 (Hamamatsu Photonics K.K.). The cells were stimulated by adding to each well 50 μL of an AMPA stimulating solution prepared to 3.3 μmol/L with the calcium measurement solution. Changes in calcium concentration were measured as the changes in fluorescence intensity at excitation wavelengths of 340 nm and 380 nm (measurement wavelength: 540 nm). The rate of change of the intracellular calcium concentration was calculated according to the following equation: Rate of increase of the intracellular calcium concentration (% control)=(Tpost−Tpre)/(Cpost−Cpre)×100
wherein Tpost: the proportion of fluorescence of sample wells after stimulation; Tpro: the proportion of fluorescence of sample wells before stimulation; Cpost: the proportion of fluorescence of control wells after stimulation; and Cpre: the proportion of fluorescence of control wells before stimulation.
The IC50 value of the test compound for AMPA inhibition was determined from the rates of increase of the intracellular calcium concentration at various concentrations.

male ddY mice [1] = assay: Rotarod performance test-1; format: in vivo; settings: oral, 25 minutes after administration, dose at which time of fall is reduced to 50% of medium control
Procedure: (§1) With regard to the AMPA receptor inhibitory action of the compounds, AMPA-induced intraneuronal calcium entry-suppressing action was examined using a primary culture system of embryonic rat cerebral cortex neurons. […] AMPA inhibitor-induced central nervous system depressant action such as loss of coordination was evaluated using a rotarod performance test.
Rotarod Performance Test-1
(§2) A rotarod (MK-660C from Muromachi Kikai Co., Ltd.) was used for the measurement. The rod (bar) was controlled to be gradually accelerated from its stationary state to a speed of 40 rotations/minute after 180 seconds. As the animals, 5 or 6-week-old male ddY mice (Japan SLC, Inc.) were used. On the day on which the test was performed, the mice were trained under the above-described measurement conditions, and mice that were able to ride on the rod for 1 minute or longer with good reproducibility were selected and subjected to the test.
Each of the compounds was dissolved in a medium (a solution prepared by adding DMSO to a 0.5% methylcellulose solution to a final concentration of 10%. As required, 0.5 to 5% of 1 mol/L hydrochloric acid and 5% Cremophor™ were added), and then orally administered to the mice in optimum four doses between 0.5 to 10 mg/kg. As the control, only the medium was orally administered. After a lapse of 25 minutes from the oral administration of each compound, the mice were subjected to the rotarod performance test. Five to twenty-five mice were used for each compound group.

male ddY mice [2] = assay: Murine 6 Hz convulsion models (6 Hz, 44 mA corneal stimulation); format: in vivo; settings: for ED50: Mus musculus, 25 min; for Therapeutic Index: TD50/ED50 (rotarod test-1 / 6 Hz convulsion model)
Procedure: as §1
Immediately after the rotarod performance test-1 was completed, the cornea was stimulated by passing an electrical current (6 Hz, 44 mA, 0.2-millisecond pulse, for 3 seconds) from a copper electrode moistened with physiological saline, and the presence or absence of the development of a seizure was observed. The seizure was determined by the development of akinesia, jaw and forelimb clonus, whisker tremors, and Straub tail.
Further, for the purpose of evaluating the safety margin of each of the compounds of the present invention, the therapeutic index (TD50/ED50) was calculated by comparing the seizure inhibitory action (ED50) in the 6 Hz convulsion models and the neurotoxic action (TD50) in the rotarod performance test-1.

male ddY mice [3] = assay: Rotarod performance test-2; format: in vivo; settings: for Time of Fall: mice, oral at the ED50 dose of the 6 Hz model, 25 minutes after administration; for Ratio Relative to the Control Compound: time of fall relative to control compound
Procedure: Rotarod Performance Test-2
as §2
As the control, only the medium was orally administered. After a lapse of 25 minutes from the oral administration of each compound, the mice were subjected to the rotarod performance test. Five or six mice were used for each compound group. For each compound, the time until the mice fell from the rotarod was measured.

[4] = mice, 6 Hz 44 mA stimulation-induced seizure, oral, after rotarod test-1 (25 minutes after administration), read-out: ED50

| SMILES | IC50 (AMPA receptor) | TD50 (male ddY mice [1]) | ED50 (male ddY mice [2]; po) | Therapeutic Index (male ddY mice [2]; mice) | Time of Fall (male ddY mice [3]; Table 3) | Ratio Relative to the Control Compound (male ddY mice [3]; Table 3) | Time of Fall (male ddY mice [3]; Table 4) | Ratio Relative to the Control Compound (male ddY mice [3]; Table 4) | ED50 (male ddY mice [2]; [4]) |
| --- | --- | --- | --- | --- | --- | --- | --- | --- | --- |
| N#Cc1ccccc1-c1cc2c(n(-c3ccc(F)cc3)c1=O)COc1cccnc1-2 [Example 10, 2-(7-(4-fluorophenyl)-8-oxo-7,8-dihydro-6H-pyrano[3,2-b:5,4-b′]dipyridin-9-yl)benzonitrile] | 18.8 nM | 3.37 mg/kg, p.o. | 2.08 mg/kg | 1.62 | 84.2 s | 6.9 |  |  |  |
| Cc1ccc(-n2c3c(cc(-c4cccc(F)c4C#N)c2=O)-c2ncccc2OC3)cn1 [Example 3, 2-fluoro-6-(7-(6-methylpyridin-3-yl)-8-oxo-7,8-dihydro-6H-pyrano[3,2-b:5,4-b′]dipyridin-9-yl)benzonitrile] | 10.4 nM | 2.47 mg/kg, p.o. | 1.21 mg/kg | 2.04 | 124.7 s | 10.2 |  |  |  |
| N#Cc1c(F)cccc1-c1cc2c(n(-c3cncc(Cl)c3)c1=O)COc1cccnc1-2 [Example 20, 2-(7-(5-chloropyridin-3-yl)-8-oxo-7,8-dihydro-6H-pyrano[3,2-b:5,4-b′]dipyridin-9-yl)-6-fluorobenzonitrile] | 8.26 nM | 4.74 mg/kg, p.o. | 2.47 mg/kg | 1.91 |  |  | 71.3 s | 5.0 |  |
| O=c1c(-c2ccccc2F)cc2c(n1-c1ccccc1)COc1cccnc1-2 [Example 9, 9-(2-fluorophenyl)-7-phenyl-6H-pyrano[3,2-b:5,4-b′]dipyridin-8(7H)-one] | 50.9 nM | 9.55 mg/kg, p.o. |  | 2.83 | 109.7 s | 9.0 |  |  | 3.38 mg/kg |
| N#Cc1c(F)cccc1-c1cc2c(n(-c3cccnc3)c1=O)COc1cccc(F)c1-2 [Example 16, 2-fluoro-6-(10-fluoro-3-oxo-4-(pyridin-3-yl)-4,5-dihydro-3H-chromeno[3,4-b]pyridin-2-yl)benzonitrile] | < 8 nM | 1.73 mg/kg, p.o. | 1.05 mg/kg | 1.65 |  |  | 92.8 s | 6.5 |  |
| O=c1c(-c2cccc(F)c2Cl)cc2c(n1-c1cncc(F)c1)COc1cccnc1-2 [Example 17, 9-(2-chloro-3-fluorophenyl)-7-(5-fluoropyridin-3-yl)-6H-pyrano[3,2-b:5,4-b′]dipyridin-8(7H)-one] | 17.7 nM | 4.27 mg/kg, p.o. | 2 mg/kg | 2.14 |  |  | 147.0 s | 10.3 |  |
| N#Cc1ccccc1-n1nc2c(c(-c3cccnc3)c1=O)COc1ccccc1-2 [Control Compound, 2-(3-oxo-4-(pyridin-3-yl)-3,5-dihydro-2H-chromeno[4,3-c]pyridazin-2-yl)benzonitrile, reference compound] | 20 nM | 2.73 mg/kg, p.o. | 3.96 mg/kg | 0.69 | 12.2 s | 1.0 | 14.3 s | 1.0 |  |
| O=c1c(-c2c(F)c(F)cc(F)c2F)cc2c(n1-c1cccnc1)COc1cccnc1-2 [Example 6, 7-(pyridin-3-yl)-9-(2,3,5,6-tetrafluorophenyl)-6H-pyrano[3,2-b:5,4-b′]dipyridin-8(7H)-one] | 34.6 nM | 4.44 mg/kg, p.o. | 2.86 mg/kg | 1.55 | 68.0 s | 5.6 |  |  |  |
| Cc1ncc(-n2c3c(cc(-c4cccc(F)c4C#N)c2=O)-c2ncccc2OC3)cn1 [Example 21, 2-fluoro-6-(7-(2-methylpyrimidin-5-yl)-8-oxo-7,8-dihydro-6H-pyrano[3,2-b:5,4-b′]dipyridin-9-yl)benzonitrile] | 44.3 nM | 5.30 mg/kg, p.o. |  | 2.12 |  |  | 118.7 s | 8.3 | 2.5 mg/kg |
| N#Cc1ncccc1-c1cc2c(n(-c3ccc(F)cc3)c1=O)COc1cccnc1-2 [Example 11, 3-(7-(4-fluorophenyl)-8-oxo-7,8-dihydro-6H-pyrano[3,2-b:5,4-b′]dipyridin-9-yl)picolinonitrile] | 26.3 nM | 5.05 mg/kg, p.o. |  | 2.99 | 114.7 s | 9.4 |  |  | 1.69 mg/kg |
| O=c1c(-c2ccccc2Cl)cc2c(n1-c1cccnc1)COc1cccnc1-2 [Example 1, 9-(2-chlorophenyl)-7-(pyridin-3-yl)-6H-pyrano[3,2-b:5,4-b′]dipyridin-8(7H)-one] | 33.5 nM | 3.09 mg/kg, p.o. | 2.08 mg/kg | 1.49 | 56.3 s | 4.6 |  |  |  |
